This note sets out measurements from patent publication US7807688B2, “Tri-heterocyclic compounds and a pharmaceutical comprising them as an active ingredient” (Ono Pharmaceutical Co., Ltd., priority 2000, dated 2010).

The experiment deals with male SD rats. The experiment is described as follows: Measurement of antianxiety activity using the elevated plus-maze. The format is in vivo, rat. Conditions: 3 and 10 mg/kg, 30 minutes after administration, 5 minutes period. Here is the method:
Two arms (open and closed) of equal width and length (50 cm×10 cm), which crossed at a right angle to form a plus maze, were elevated to a height 50 cm above the ground level. […] Lighting on both ends of the open arm was maintained at constant illumination. Thirty minutes after administration of various doses of test-compounds (5 mL/kg), male SD rats were placed in the center of the plus maze. The time spent(s) in the open arms and the number of entries into the respective arms were measured within a 5 minutes period. The investigation personnel for measuring the indexes positioned at a fixed location during the course of the experiment.

As to `CCC(CC)Nc1c2c(nc3c(-c4ccc(OC)cc4Cl)c(C)nn13)CCC2.Cl` [Example 2(78), 8-(3-pentylamino)-2-methyl-3-(2-chloro-4-methoxyphenyl)-6,7-dihydro-5H-cyclopenta[d]pyrazolo[1,5-a]pyrimidine hydrochloride], the “time spent in the open arms” value (FIG. 1) is recorded as “extend significantly”. Further, the “number of entries into the open arms” value (FIG. 2) is “increased significantly”.
